From PubChem BioAssay AID328 (DTP/NCI, 2004) come the findings set out here.

The structures appear in SMILES notation. Several values for one entry are separate records, joined by “and”; a condition that tells them apart may be missing. Equal values may be shown once. Inconclusive results and toxic doses are left out.

In this assay the test system is BDF1 mice, P388 leukemia ip, median survival T/C. Put plainly: NCI In Vivo Anticancer Drug Screen. Data for tumor model P388 Leukemia (intraperitoneal) in B6D2F1 (BDF1) mice. To be noted: endpoint: median survival time, higher = longer survival. The method in brief:
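Read-out is survival of treated animals expressed relative to the vehicle group, as a T/C ratio.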

Setting [1] is: dose: 100.0 mg/kg/injection, schedule: Q04DX003 (ip), vehicle: saline with Tween-80.
Setting [2] is: dose: 200.0 mg/kg/injection, schedule: Q04DX003 (ip), vehicle: saline with Tween-80.
Setting [3] is: dose: 400.0 mg/kg/injection, schedule: Q04DX003 (ip), vehicle: saline with Tween-80.
[4] abbreviates: dose: 25.0 mg/kg/injection, schedule: Q01DX009 (ip), vehicle: saline with Tween-80.
The mark [5] stands for this setting: dose: 50.0 mg/kg/injection, schedule: Q01DX009 (ip), vehicle: saline with Tween-80.
Setting [6] is: dose: 100.0 mg/kg/injection, schedule: Q01DX009 (ip), vehicle: saline with Tween-80.
Setting [7] is: dose: 100.0 mg/kg/injection, schedule: Q04DX003 (ip), vehicle: Klucel (hydroxypropylcellulose) (HPC).
Where [8] appears, read: dose: 200.0 mg/kg/injection, schedule: Q01DX009 (ip), vehicle: saline with Tween-80.

For the compound `O=C(Nc1cccc(Cl)c1)Nc1ccccc1Cl`, the T/C was 97 % of control under setting [1], 108 % of control under setting [2] and 91 % of control under setting [3].

With `O=S(=O)(c1ccccc1)c1nn2nnnc2c2ccccc12`, the T/C is, setting by setting: under setting [4], 86 % of control; under setting [5], 94 % of control; under setting [6], 95 % of control.

For the compound `CCN=C(N)Nc1ccc(NC(=O)c2ccc(C(=O)Nc3ccc(NC(N)=NCC)cc3)cc2)cc1`, the T/C is, setting by setting: (dose: 16.5 mg/kg/injection, schedule: Q04DX003 (ip), vehicle: saline with Tween-80) 213 % of control; (dose: 25.0 mg/kg/injection, schedule: Q04DX003 (ip), vehicle: saline with Tween-80) 218 % of control; (dose: 37.5 mg/kg/injection, schedule: Q04DX003 (ip), vehicle: saline with Tween-80) 109 % of control; under setting [1], 168 % of control; under setting [2], 86 % of control.

Turning to `C[Si](C)(C)O[Si](C)(C)c1ccccc1`, the T/C is, setting by setting: (dose: 100.0 mg/kg/injection, schedule: Q01DX001 (ip), vehicle: saline) 104 % of control; (dose: 200.0 mg/kg/injection, schedule: Q01DX001 (ip), vehicle: saline) 95 % of control; (dose: 400.0 mg/kg/injection, schedule: Q01DX001 (ip), vehicle: saline) 95 % of control.

Turning to `O=P(Oc1ccc(OP(=O)(N2CC2)N2CC2)cc1)(N1CC1)N1CC1`, the T/C is 168 % of control (dose: 50.0 mg/kg/injection, schedule: Q04DX003 (ip), vehicle: saline); 177 % of control (dose: 75.0 mg/kg/injection, schedule: Q04DX003 (ip), vehicle: saline); 190 % of control (dose: 115.0 mg/kg/injection, schedule: Q04DX003 (ip), vehicle: saline with Tween-80); 254 % of control (dose: 175.0 mg/kg/injection, schedule: Q04DX003 (ip), vehicle: saline with Tween-80); 150 % of control (dose: 264.0 mg/kg/injection, schedule: Q04DX003 (ip), vehicle: saline with Tween-80); 254 % of control under setting [3].

For the compound `CN(C)C(=S)SC(=S)N(C)C`, the T/C by setting is: (dose: 25.0 mg/kg/injection, schedule: Q04DX003 (ip), vehicle: Klucel (hydroxypropylcellulose) (HPC)) 100 % of control; (dose: 50.0 mg/kg/injection, schedule: Q04DX003 (ip), vehicle: Klucel (hydroxypropylcellulose) (HPC)) 95 % of control; (dose: 100.0 mg/kg/injection, schedule: Q01DX001 (ip), vehicle: Klucel (hydroxypropylcellulose) (HPC)) 100 % of control and 104 % of control; under setting [7], 109 % of control; (dose: 200.0 mg/kg/injection, schedule: Q01DX001 (ip), vehicle: Klucel (hydroxypropylcellulose) (HPC)) 100 % of control; (dose: 400.0 mg/kg/injection, schedule: Q01DX001 (ip), vehicle: Klucel (hydroxypropylcellulose) (HPC)) 104 % of control and 108 % of control.

On to `CN(N=O)C(=O)N[C@@H](C=O)[C@@H](O)[C@H](O)[C@H](O)CO`, for which the T/C reads like this: (dose: 17.0 mg/kg/injection, schedule: Q01DX009 (ip), vehicle: water) 118 % of control; (dose: 39.0 mg/kg/injection, schedule: Q01DX009 (ip), vehicle: water) 161 % of control; (dose: 40.0 mg/kg/injection, schedule: Q01DX010 (ip), vehicle: other) 154 % of control; (dose: 50.0 mg/kg/injection, schedule: Q01DX009 (ip), vehicle: other) 171 % of control; (dose: 58.0 mg/kg/injection, schedule: Q01DX009 (ip), vehicle: water) 157 % of control and 181 % of control; (dose: 80.0 mg/kg/injection, schedule: Q01DX010 (ip), vehicle: other) 118 % of control. The T/C reads like this: (dose: 87.0 mg/kg/injection, schedule: Q01DX009 (ip), vehicle: water) 154 % of control and 170 % of control; (dose: 100.0 mg/kg/injection, schedule: Q04DX002 (ip), vehicle: saline) 109 % of control; (dose: 130.0 mg/kg/injection, schedule: Q01DX009 (ip), vehicle: water) 89 % of control; (dose: 200.0 mg/kg/injection, schedule: Q04DX002 (ip), vehicle: saline) 100 % of control; (dose: 400.0 mg/kg/injection, schedule: Q04DX002 (ip), vehicle: saline) 109 % of control.

Consider `O=c1cc(-c2ccccc2)nc2c(Cl)cc(Cl)cn12`, for which the T/C runs as follows: under setting [7], 89 % of control; (dose: 200.0 mg/kg/injection, schedule: Q04DX003 (ip), vehicle: Klucel (hydroxypropylcellulose) (HPC)) 100 % of control; (dose: 400.0 mg/kg/injection, schedule: Q04DX003 (ip), vehicle: Klucel (hydroxypropylcellulose) (HPC)) 96 % of control.

`CC(C)C(Sc1nc(N)nc2nc[nH]c12)C(=O)O` (stereo unspecified): the T/C reads like this: (dose: 100.0 mg/kg/injection, schedule: Q04DX003 (ip), vehicle: saline sonified) 110 % of control; (dose: 200.0 mg/kg/injection, schedule: Q04DX003 (ip), vehicle: saline sonified) 120 % of control; (dose: 400.0 mg/kg/injection, schedule: Q04DX003 (ip), vehicle: saline sonified) 105 % of control.

Take `COC(=O)c1ccccc1NCCCC(=O)O`: the T/C by setting is: under setting [1], 91 % of control; under setting [2], 108 % of control; under setting [3], 100 % of control.

With `COc1ccc(C=Nc2ccc(OC(C)=O)cc2)cc1`, the T/C is 105 % of control (dose: 45.0 mg/kg/injection, schedule: Q01DX009 (ip), vehicle: Klucel (hydroxypropylcellulose) (HPC)); 110 % of control under setting [5]; 110 % of control (dose: 65.0 mg/kg/injection, schedule: Q01DX009 (ip), vehicle: Klucel (hydroxypropylcellulose) (HPC)); 110 % of control (dose: 100.0 mg/kg/injection, schedule: Q01DX009 (ip), vehicle: Klucel (hydroxypropylcellulose) (HPC)); 100 % of control under setting [6]; 104 % of control (dose: 100.0 mg/kg/injection, schedule: Q04DX003 (ip), vehicle: saline). In addition, the T/C runs as follows: (dose: 150.0 mg/kg/injection, schedule: Q01DX009 (ip), vehicle: Klucel (hydroxypropylcellulose) (HPC)) 105 % of control; (dose: 200.0 mg/kg/injection, schedule: Q01DX009 (ip), vehicle: Klucel (hydroxypropylcellulose) (HPC)) 115 % of control; (dose: 200.0 mg/kg/injection, schedule: Q01DX009 (ip), vehicle: other) 104 % of control; under setting [8], 120 % of control; (dose: 200.0 mg/kg/injection, schedule: Q04DX003 (ip), vehicle: saline) 118 % of control; (dose: 300.0 mg/kg/injection, schedule: Q01DX009 (ip), vehicle: Klucel (hydroxypropylcellulose) (HPC)) 120 % of control. In addition, the T/C was 95 % of control (dose: 400.0 mg/kg/injection, schedule: Q01DX009 (ip), vehicle: other) and 109 % of control (dose: 400.0 mg/kg/injection, schedule: Q04DX003 (ip), vehicle: saline).

Consider `c1ccc(CCCSc2ccccc2)cc1`, for which the T/C runs as follows: under setting [1], 118 % of control; under setting [2], 113 % of control; under setting [3], 109 % of control.

On to `O=C(O)c1ccc(Oc2nc3ccccc3s2)cc1`, for which the T/C is, setting by setting: under setting [4], 95 % of control; under setting [5], 95 % of control; under setting [6], 104 % of control.

As to `CCCCCCCCOC(=O)c1[nH]cnc1/N=N\N(C)C`, the T/C (dose: 12.5 mg/kg/injection, schedule: Q01DX009 (ip), vehicle: Klucel (hydroxypropylcellulose) (HPC)) was 95 % of control; the T/C (dose: 25.0 mg/kg/injection, schedule: Q01DX009 (ip), vehicle: Klucel (hydroxypropylcellulose) (HPC)) is 95 % of control; the T/C (dose: 50.0 mg/kg/injection, schedule: Q01DX009 (ip), vehicle: Klucel (hydroxypropylcellulose) (HPC)) is 90 % of control.

For `CC1CC(O)C2C3(C)CCCC2(COC3=O)C12CCC1(CCOC1=O)O2` (stereo unspecified), the T/C reads like this: (dose: 0.13 mg/kg/injection, schedule: Q01DX009 (ip), vehicle: saline) 112 % of control; (dose: 0.25 mg/kg/injection, schedule: Q01DX009 (ip), vehicle: saline) 104 % of control; (dose: 0.5 mg/kg/injection, schedule: Q01DX009 (ip), vehicle: saline) 93 % of control; (dose: 1.0 mg/kg/injection, schedule: Q01DX009 (ip), vehicle: saline) 104 % of control.

Take `CN1CCc2cc3c4cc2C1Cc1ccc(O)c(c1)Oc1ccc(cc1)CC1c2c(cc(O)c(c2O4)O3)CCN1C` (stereo unspecified): under “dose: 7.5 mg/kg/injection, schedule: Q01DX009 (ip), vehicle: saline with Tween-80”, the T/C is 90 % of control.

As to `CN(C)c1ccc(/C=C\c2ccnc3c([N+](=O)[O-])cccc23)cc1`, the T/C under setting [5] is 115 % of control, the T/C under setting [6] is 97 % of control and the T/C under setting [8] was 92 % of control.

For the compound `CCOC(=O)Cn1c(=S)sc2ccccc21`, the T/C was 114 % of control under setting [4]; 98 % of control and 114 % of control under setting [5]; 95 % of control and 120 % of control under setting [6]; 93 % of control and 100 % of control under setting [8].
